Assay: Determination of the ratios of enantiomers of chiral metabolites in human milk on chiral GC capillaries
Assay type: in vivo
Method in brief: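 Milk extracts analysed by GC-MS on cyclodextrin chiral capillaries: Rt-bDEXsm for 2,3-dehydro-, α2,3-epoxy-, 2-oxo-, 3-oxo- and 9-hydroxy-1,8-cineole, Rt-yDEXsa for α2-, α3- and β2-hydroxy-1,8-cineole. Enantiomer ratio = each enantiomer's peak area over summed pair area ×100; absolute enantiomer concentrations from known metabolite concentrations.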

CC1(C)OC2(C)CCC1CC2O (stereo not drawn) [a2-hydroxy-1,8-cineole, α2-hydroxy-1,8-cineole]
Enantiomeric ratio in human milk: nearly enantiomerically pure
Percentage E1 in single sample (outlier) (human milk sample B-2a, excluded from Table 3): 40.5%
Percentage E1, range as described for boxplot (human milk samples, Figure 5): under 10%

— PMC3901259, “Characterisation of the Metabolites of 1,8-Cineole Transferred into Human Milk: Concentrations and Ratio of Enantiomers” (Metabolites, 2013)
